Experimental data as given in patent US20050070006A1 (priority 2001, published 2005).
In brackets after ≈: the same amount, converted by molar mass. Like-named read-outs stand apart in the source and are kept apart here.

Experiments:
[1] = system: strain 4S (frameshift mutation); test: Long-term mutation test (selection phase 16 hours), luminometric β-galactosidase reporter; conditions: selection 16 hours
[2] = system: strain 4S (frameshift mutation); conditions: Bromocresol Red colour change
[3] = system: strain 6S (frameshift mutation); test: Long-term mutation test (selection phase 16 hours), luminometric β-galactosidase reporter; conditions: selection 16 hours
[4] = antibiotic activity; Olivia et al. 1992; cited from earlier work

For Nitrofluorene, the “Mutation induction (factor)” value ([1]; 0.031 μg/ml) was 39 factor, the “Relative luminescence units (rlu)” value ([1]; 0.031 μg/ml) was 210703 rlu and the “Mutation induction (factor)” value ([1]; 0.0625 μg/ml) was 90 factor. For the same molecule, the “Relative luminescence units (rlu)” value ([1]; 0.0625 μg/ml) was 480532 rlu, the “Mutation induction (factor)” value ([1]; 0.125 μg/ml) was 169 factor and the “Relative luminescence units (rlu)” value ([1]; 0.125 μg/ml) was 900022 rlu. The “Mutation induction (factor)” value ([1]; 0.25 μg/ml) was 321 factor, the “Relative luminescence units (rlu)” value ([1]; 0.25 μg/ml) was 1713083 rlu and the “Mutation induction (factor)” value ([1]; 0.5 μg/ml) was 682 factor. For the same molecule, the “Relative luminescence units (rlu)” value ([1]; 0.5 μg/ml) was 3643737 rlu, the “Mutation induction (factor)” value ([1]; 1 μg/ml) was 630 factor and the “Relative luminescence units (rlu)” value ([1]; 1 μg/ml) was 3360982 rlu.
In the case of Nitropyrene, the “Mutation induction (factor)” value ([1]; 0.031 μg/ml) is reported as 0.8 factor, the “Relative luminescence units (rlu)” value ([1]; 0.031 μg/ml) is reported as 4125 rlu and the “Mutation induction (factor)” value ([1]; 0.0625 μg/ml) is reported as 19.8 factor. For the same molecule, the “Relative luminescence units (rlu)” value ([1]; 0.0625 μg/ml) was 105949 rlu, the “Mutation induction (factor)” value ([1]; 0.125 μg/ml) was 41 factor and the “Relative luminescence units (rlu)” value ([1]; 0.125 μg/ml) was 219636 rlu. The “Mutation induction (factor)” value ([1]; 0.25 μg/ml) was 65 factor, the “Relative luminescence units (rlu)” value ([1]; 0.25 μg/ml) was 348410 rlu and the “Mutation induction (factor)” value ([1]; 0.5 μg/ml) was 177 factor. The “Relative luminescence units (rlu)” value ([1]; 0.5 μg/ml) was 950853 rlu, the “Mutation induction (factor)” value ([1]; 1 μg/ml) was 103 factor and the “Relative luminescence units (rlu)” value ([1]; 1 μg/ml) was 552390 rlu.
With `COc1ccc2nc3cc(Cl)ccc3c(NCCCNCCCl)c2c1.Cl.Cl` [ICR-191, 2-Methoxy-6-chloro-9-(3-(2-chloro-ethyl)aminopropylamino)acridine, dihydrochloride] the “% of positive wells” value ([2]; 0.03 μg/ml) was 0%, the “Mutation induction (factor)” value ([2]; 0.03 μg/ml) was 0 factor and the “% of positive wells” value ([2]; 0.06 μg/ml) was 6.3%. For the same molecule, the “Mutation induction (factor)” value ([2]; 0.06 μg/ml) was 2 factor, the “% of positive wells” value ([2]; 0.12 μg/ml) was 12.5% and the “Mutation induction (factor)” value ([2]; 0.12 μg/ml) was 4 factor. The “% of positive wells” value ([2]; 0.25 μg/ml) was 25%, the “Mutation induction (factor)” value ([2]; 0.25 μg/ml) was 8.1 factor and the “% of positive wells” value ([2]; 0.5 μg/ml) was 37.5%. For the same molecule, the “Mutation induction (factor)” value ([2]; 0.5 μg/ml) was 12.1 factor, the “% of positive wells” value ([2]; 1 μg/ml) was 75% and the “Mutation induction (factor)” value ([2]; 1 μg/ml) was 24.2 factor. The “Mutation induction (factor)” value ([3]; 0.016 μg/ml) was 28 factor, the “Relative luminescence units (rlu)” value ([3]; 0.016 μg/ml) was 151340 rlu and the “Mutation induction (factor)” value ([3]; 0.031 μg/ml) was 57 factor. The “Relative luminescence units (rlu)” value ([3]; 0.031 μg/ml) was 307828 rlu, the “Mutation induction (factor)” value ([3]; 0.0625 μg/ml) was 86 factor and the “Relative luminescence units (rlu)” value ([3]; 0.0625 μg/ml) was 466003 rlu. For the same molecule, the “Mutation induction (factor)” value ([3]; 0.125 μg/ml) was 127 factor, the “Relative luminescence units (rlu)” value ([3]; 0.125 μg/ml) was 685471 rlu and the “Mutation induction (factor)” value ([3]; 0.25 μg/ml) was 162 factor. For the same molecule, the “Relative luminescence units (rlu)” value ([3]; 0.25 μg/ml) was 880208 rlu, the “Mutation induction (factor)” value ([3]; 0.5 μg/ml) was 235 factor and the “Relative luminescence units (rlu)” value ([3]; 0.5 μg/ml) was 1274327 rlu. For the same molecule, the “Mutation induction (factor)” value ([3]; 1 μg/ml) was 264 factor and the “Relative luminescence units (rlu)” value ([3]; 1 μg/ml) was 1432620 rlu.
For `CN(C)[C@@H]1C(=O)C(C(N)=O)=C(O)[C@@]2(O)C(=O)C3=C(O)c4c(O)cccc4[C@@](C)(O)[C@H]3C[C@@H]12` [tetracyclin], the “MIC (minimum inhibition concentration) value” [4] is given as 0.5 µg/mL (≈ 1.13 µM).
